{"source": "patent US20220364135A1", "about": "“MODIFIED PROPIONIBACTERIUM AND METHODS OF USE” (priority 2019, published 2022)", "key": {"cbiMCbl riboswitch": {"tested_on": "cbiMCbl riboswitch", "experiment": "FbFP reporter assay, WT cbiMCbl riboswitch in FbFP-ΔcobA strain", "assay_type": "cell-based, P. UF1", "settings": "for FbFP expression with VB12 analogues: various concentrations of analogues", "source_text": "(§1) To generate the cbiMCbl riboswitch-FbFP translational fusion constructs, the 5′ UTR (FIG. 6C) containing the promoter of cobA operon, wild-type cbiMCbl riboswitch and ribosome-binding site was PCR amplified from P. UF1 genome (NCBI Genome database, CP018002) with primers S-cobA-1 and S-cobA 22. The codon-optimized FbFP gene (32) was synthesized (GenScript, Piscataway, N.J.) and PCR amplified using primers S-cobA 33 and S-cobA 4. Overlapping PCR was used to ligate the 5′ UTR and FbFP gene using Primers cobA-1 and S-cobA-4, which was subsequently cloned into plasmid pYMZ between BamHI and XbaI sites. Mutations of the cbiMCbl riboswitch were generated by site-directed mutagenesis or overlapping PCR (Table S1). cbiM, cbiN, cbiO, cobA, and tetR reporters were constructed using similar strategies. All plasmids were verified via Sanger sequencing (Genewiz, South Plainfield, N.J.) and introduced into P. UF1 or ΔcobA P. UF1 by electroporation.\n(§2) FbFP reporter assays: To perform FbFP fluorescence intensity measurement, bacteria were cultivated for three days in triplicate, washed, and resuspended with PBS. The excitation and emission wavelengths of FbFP were set at 452 nm and 495 nm on a microplate reader (BioTek, Winooski, Vt.), respectively (48). FbFP intensity at 495 nm was normalized by corresponding OD600 values for each sample. P. UF1 strain with an empty vector was used as the baseline for calculation of fluorescence intensity."}, "cobA operon [1]": {"tested_on": "cobA operon", "experiment": "Western blot of cobA operon gene expression under WT cbiMCbl riboswitch in ΔcobA P. UF1 reporter strains", "assay_type": "cell-based", "settings": "for cbiM expression with VB12 analogues: various concentrations of analogues", "source_text": "as §1\nWestern blot: Bacteria were cultivated for three days, and washed three times, followed by lysozyme digestion (10 mg/ml) for 2 hours at 37° C. Cell lysates were separated by 12% SDS-PAGE, transferred to PVDF membranes (Sigma Aldrich, St. Louis, Mo.), and blocked with Odyssey blocking buffer (Li-Cor Biosciences, Lincoln, Nebr.). Subsequently, membranes were incubated with anti-HIS-tag antibody (Thermo Fisher Scientific, Waltham, Mass.), anti-TetR antibody (Takara Bio, Mountain view, CA), anti-CobA serum antibodies, or anti-LspA serum antibodies (Stock in our lab) for 2 h at room temperature in the blocking buffer with 0.02% Tween 20. After washing with TBST (20 mM Tris, 150 mM NaCl and 0.1% Tween 20, pH 7.4), membranes were incubated with IRDye 680RD goat anti-mouse secondary antibody (Li-Cor Biosciences, Lincoln, Nebr.) for 1 hour at room temperature in the blocking buffer with 0.02% Tween 20. After washing with TBS, the proteins were detected using an Odyssey infrared imaging system (Li-Cor Biosciences, Lincoln, Nebr.). LspA was used as an internal control."}, "cobA operon [2]": {"tested_on": "cobA operon", "experiment": "qRT-PCR of cobA operon transcription", "assay_type": "cell-based", "settings": "P. UF1 incubated with various concentrations of VB12", "source_text": "Quantitative RT-PCR: Total RNA was extracted from various bacterial cultures using Trizol reagent (Thermo Fisher Scientific, Waltham, Mass.), and the RNA mixtures were further purified using the Aurum Total RNA Mini Kit (Bio-Rad, Hercules, Calif.). The cDNA was synthesized from total RNA using iScript Advanced cDNA Synthesis Kit (Bio-Rad, Hercules, Calif.). Quantitative real-time was accomplished with SsoAdvanced Universal SYBR Green Supermix (Bio-Rad, Hercules, Calif.) on a CFX96 real-time PCR system (Bio-Rad, Hercules, Calif.) using primers listed in Table 2 above. Results were normalized to those obtained from groL2 gene."}, "5′ UTR of cobA operon": {"tested_on": "5′ UTR of cobA operon", "experiment": "FbFP and cbiM reporter expression in FbFP-WT and CbiM-WT strains", "assay_type": "cell-based, P. UF1", "settings": "FbFP-WT and CbiM-WT cultures", "source_text": "as §1\n[…] The excitation and emission wavelengths of FbFP were set at 452 nm and 495 nm on a microplate reader (BioTek, Winooski, Vt.), respectively (48). […] P. UF1 strain with an empty vector was used as the baseline for calculation of fluorescence intensity.\n[…] After washing with TBS, the proteins were detected using an Odyssey infrared imaging system (Li-Cor Biosciences, Lincoln, Nebr.). […]"}, "[3]": {"tested_on": "SL1-deleted riboswitch (ΔSL1)", "experiment": "FbFP reporter assay, SL1-deleted riboswitch in FbFP-ΔcobA strain", "assay_type": "cell-based, P. UF1", "source_text": "as §1\nas §2, with “FbFP intensity at 495 nm was normalized by corresponding OD600 values for each sample.” left out"}, "[4]": {"tested_on": "SL1-deleted riboswitch (ΔSL1)", "experiment": "Western blot of cbiM expression, SL1-deleted riboswitch in CbiM-ΔcobA strain", "assay_type": "cell-based, P. UF1", "settings": "VB12 0-5000 ng/ml", "source_text": "as §1\nWestern blot: Bacteria were cultivated for three days, and washed three times, followed by lysozyme digestion (10 mg/ml) for 2 hours at 37° C. […] After washing with TBS, the proteins were detected using an Odyssey infrared imaging system (Li-Cor Biosciences, Lincoln, Nebr.). […]"}}}
{"compound": "C/C1=C2/[N-][C@H]([C@H](CC(N)=O)[C@@]2(C)CCC(=O)NC[C@@H](C)OP(=O)([O-])O[C@H]2[C@@H](O)[C@@H](n3cnc4cc(C)c(C)cc43)O[C@@H]2CO)[C@]2(C)N=C(/C(C)=C3N=C(/C=C4N=C1[C@@H](CCC(N)=O)C\\4(C)C)[C@@H](CCC(N)=O)[C@]\\3(C)CC(N)=O)[C@@H](CCC(N)=O)[C@]2(C)CC(N)=O.[CH2-][C@H]1O[C@@H](n2cnc3c(N)ncnc32)[C@H](O)[C@@H]1O.[Co]", "note": "[adenosylcobalamin]", "values": [{"measurement": "FbFP expression with VB12 analogues", "setting": "cbiMCbl riboswitch; FbFP-ΔcobA strain", "value": "similarly downregulated"}, {"measurement": "cbiM expression with VB12 analogues", "setting": "cobA operon [1]; CbiM-ΔcobA strain", "value": "similarly downregulated"}]}
{"compound": "C/C1=C2/[N-][C@H]([C@H](CC(N)=O)[C@@]2(C)CCC(=O)NC[C@@H](C)OP(=O)([O-])O[C@H]2[C@@H](O)[C@@H](n3cnc4cc(C)c(C)cc43)O[C@@H]2CO)[C@]2(C)N=C(/C(C)=C3N=C(/C=C4N=C1[C@@H](CCC(N)=O)C\\4(C)C)[C@@H](CCC(N)=O)[C@]\\3(C)CC(N)=O)[C@@H](CCC(N)=O)[C@]2(C)CC(N)=O.[Co+3].[OH-]", "note": "[hydroxocobalamin]", "values": [{"measurement": "FbFP expression with VB12 analogues", "setting": "cbiMCbl riboswitch; FbFP-ΔcobA strain", "value": "similarly downregulated"}, {"measurement": "cbiM expression with VB12 analogues", "setting": "cobA operon [1]; CbiM-ΔcobA strain", "value": "similarly downregulated"}]}
{"compound": "C/C1=C2/[N-][C@H]([C@H](CC(N)=O)[C@@]2(C)CCC(=O)NC[C@H](C)OP(=O)([O-])O[C@H]2[C@@H](O)[C@@H](n3cnc4cc(C)c(C)cc43)O[C@@H]2CO)[C@]2(C)N=C(/C(C)=C3N=C(/C=C4N=C1[C@@H](CCC(N)=O)C\\4(C)C)[C@@H](CCC(N)=O)[C@]\\3(C)CC(N)=O)[C@@H](CCC(N)=O)[C@]2(C)CC(N)=O.[CH3-].[Co+3]", "note": "[methylcobalamin]", "values": [{"measurement": "FbFP expression with VB12 analogues", "setting": "cbiMCbl riboswitch; FbFP-ΔcobA strain", "value": "similarly downregulated"}, {"measurement": "cbiM expression with VB12 analogues", "setting": "cobA operon [1]; CbiM-ΔcobA strain", "value": "similarly downregulated"}]}
{"compound": "Vitamin B12 [VB12]", "values": [{"measurement": "mRNA levels of cbiM, cbiN, cbiO and cbiQ", "setting": "cobA operon [2]", "value": "significantly repressed"}, {"measurement": "expression of FbFP and cbiM", "setting": "5′ UTR of cobA operon", "value": "significantly decreased"}, {"measurement": "IC50 of VB12 on FbFP expression, SL1-deleted riboswitch", "setting": "[3]; FbFP-ΔcobA strain, ΔSL1 riboswitch, VB12 0-5000 ng/ml", "value": 12.962, "unit": "µg/mL"}, {"measurement": "IC50 with ΔSL1 relative to WT riboswitch", "setting": "[3]; ΔSL1 vs WT riboswitch", "value": 256, "unit": "times"}, {"measurement": "cbiM expression, ΔSL1 compared to WT riboswitch", "setting": "[4]", "value": "no repression"}, {"measurement": "VB12 concentration completely inhibiting expression of downstream genes by cbiMCbl riboswitch", "setting": "cbiMCbl riboswitch", "value": 750, "unit": "µM"}, {"measurement": "VB12 concentration at which expression of FbFP was completely abated", "setting": "cbiMCbl riboswitch; FbFP-ΔcobA strain, WT riboswitch", "value": 500, "unit": "ng/mL"}, {"measurement": "half maximal inhibitory concentration (IC50) of VB12 on FbFP expression", "setting": "cbiMCbl riboswitch; FbFP-ΔcobA strain, WT riboswitch, VB12 0-2500 ng/ml", "value": 0.0752, "unit": "µg/mL"}, {"measurement": "repression of FbFP expression", "setting": "cbiMCbl riboswitch; WT riboswitch, 250 ng/ml VB12", "value": "~10", "unit": "fold"}, {"measurement": "cbiM expression (Western blot, HIS-tag antibody)", "setting": "cobA operon [1]; CbiM-ΔcobA strain, VB12 0-2500 ng/ml", "value": "dose-dependent inhibition"}, {"measurement": "expression of cbiN and cbiO (Western blot)", "setting": "cobA operon [1]; CbiN-ΔcobA and CbiO-ΔcobA cultures, VB12 0-25000 ng/ml", "value": "dampened"}, {"measurement": "cobA expression (Western blot)", "setting": "cobA operon [1]; CobA-ΔcobA strain, VB12 0-25000 ng/ml", "value": "dose-dependent inhibition but to a lesser extent"}]}
{"compound": "cyanocobalamin", "values": [{"measurement": "FbFP expression with VB12 analogues", "setting": "cbiMCbl riboswitch; FbFP-ΔcobA strain", "value": "similarly downregulated"}, {"measurement": "cbiM expression with VB12 analogues", "setting": "cobA operon [1]; CbiM-ΔcobA strain", "value": "similarly downregulated"}]}
